Values of other authors, collected in PMC11915028 (ACS Pharmacology & Translational Science, 2025).

Target: PSMA expression in PCa lesions (Homo sapiens, UniProt Q04609)
From the text: High tumor-to-background ratios are required for the detection of small cancer/metastatic lesions. The required ratio is ∼10 for the detection of lesions with about 1 cm diameter, but for the detection of smaller lesions (0.3 cm), the required ratio should be almost 90.[30]

PSMA expression in PCa lesions, sequence (Q04609 whole entry): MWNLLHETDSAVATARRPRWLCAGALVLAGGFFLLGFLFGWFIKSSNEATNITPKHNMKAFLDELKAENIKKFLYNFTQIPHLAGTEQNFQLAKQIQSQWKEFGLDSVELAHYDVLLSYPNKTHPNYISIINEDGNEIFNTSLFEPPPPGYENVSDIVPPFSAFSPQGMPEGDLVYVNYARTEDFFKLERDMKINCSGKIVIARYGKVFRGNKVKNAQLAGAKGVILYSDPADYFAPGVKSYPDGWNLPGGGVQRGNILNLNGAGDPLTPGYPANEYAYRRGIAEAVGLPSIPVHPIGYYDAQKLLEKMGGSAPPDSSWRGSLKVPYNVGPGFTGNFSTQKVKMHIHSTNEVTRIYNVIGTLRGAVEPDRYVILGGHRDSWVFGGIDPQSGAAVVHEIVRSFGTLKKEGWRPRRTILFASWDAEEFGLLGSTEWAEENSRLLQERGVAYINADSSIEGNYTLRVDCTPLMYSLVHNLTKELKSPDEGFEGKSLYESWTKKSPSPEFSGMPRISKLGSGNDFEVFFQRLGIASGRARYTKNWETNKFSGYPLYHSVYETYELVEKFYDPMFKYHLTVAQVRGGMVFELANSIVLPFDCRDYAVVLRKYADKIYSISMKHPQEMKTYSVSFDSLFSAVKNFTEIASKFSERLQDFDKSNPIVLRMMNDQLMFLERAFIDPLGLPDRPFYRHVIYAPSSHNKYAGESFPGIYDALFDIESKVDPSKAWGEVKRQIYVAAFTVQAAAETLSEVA

Which results are given for `O=C([O-])CN(CCN(CC(=O)[O-])Cc1cc(CCC(=O)NCCCCCC(=O)NCCCC[C@H](NC(=O)N[C@@H](CCC(=O)O)C(=O)O)C(=O)O)ccc1[O-])Cc1cc(CCC(=O)O)ccc1[O-].[68Ga+3].[OH3+]` [[^68Ga]Ga-PSMA-11]?
SUVmax, local recurrences of PCa (PET, three hours post-administration): 3–39; SUVmax, normal prostate gland tissue (human, in vivo): 2−4
